In patent US20240002387A1, “METHOD FOR PREPARING BTK DEGRADING AGENT” (HAISCO PHARMACEUTICALS PTE. LTD., priority 2020, published 2024):

What was measured:
BTK [1] = target: BTK (Homo sapiens (Human), UniProt Q06187); test: Detection of BTK degradation in Mino cells; assay type: cell-based
Description: Mino human mantle cell lymphoma cell line was purchased from ATCC and cultured under the following conditions: RPMI-1640+15% FBS+1% double antibody in a 37° C., 5% CO2 incubator. Cells were plated in a 6-well plate, with 5×10^5 cells/well. After plating, the compounds at different concentrations were added and cultured in an incubator at 37° C. under 5% CO2 for 48 hours. After culturing, the cells were collected, and RIPA lysis buffer (Beyotime, Cat. P0013B) was added. The cells were lysed on ice for 15 minutes and centrifuged at 12000 rpm at 4° C. for 10 minutes. The protein sample of the supernatant was collected, and the protein was quantified by using the BCA kit (Beyotime, Cat. P0009), and then the protein was diluted to 0.25 mg/mL. The expressions of BTK (CST, Cat. 8547S) and the internal reference (3-actin (CST, Cat. 3700S) were detected using a fully automated western blot quantitative analyzer (Proteinsimple) with a kit (Protein simple, Cat. SM-W004). The expression level of BTK relative to the internal reference was calculated using Compass software, and the DC50 value was calculated using Origen9.2 software according to formula (1). Specifically, the BTK administration denoted the expression level of BTK in administration groups at different doses, and the BTK vehicle denoted the expression level of BTK in the vehicle control group. […]

BTK [2] = target: BTK (Mus musculus (Mouse), UniProt P35991); test: Detection of BTK protein degradation in spleen of mice; assay type: in vivo
Sequence of BTK (Mus musculus (Mouse), UniProt P35991) (P35991 whole entry): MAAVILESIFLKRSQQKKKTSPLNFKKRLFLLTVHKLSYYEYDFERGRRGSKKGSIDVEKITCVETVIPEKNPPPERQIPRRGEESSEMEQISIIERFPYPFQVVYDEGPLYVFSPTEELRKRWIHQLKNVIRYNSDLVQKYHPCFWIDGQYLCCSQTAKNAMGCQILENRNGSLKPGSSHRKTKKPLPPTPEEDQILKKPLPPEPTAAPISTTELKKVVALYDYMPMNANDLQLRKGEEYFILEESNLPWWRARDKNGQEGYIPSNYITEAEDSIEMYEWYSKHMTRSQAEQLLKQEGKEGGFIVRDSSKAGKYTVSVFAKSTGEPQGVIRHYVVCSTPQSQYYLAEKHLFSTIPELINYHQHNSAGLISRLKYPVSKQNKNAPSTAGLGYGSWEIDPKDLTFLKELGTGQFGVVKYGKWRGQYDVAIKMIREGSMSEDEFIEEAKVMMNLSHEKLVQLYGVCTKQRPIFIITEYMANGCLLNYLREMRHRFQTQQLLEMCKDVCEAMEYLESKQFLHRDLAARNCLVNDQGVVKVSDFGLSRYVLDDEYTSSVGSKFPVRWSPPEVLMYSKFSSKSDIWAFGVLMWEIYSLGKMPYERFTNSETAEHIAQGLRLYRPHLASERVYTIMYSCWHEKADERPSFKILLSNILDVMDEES
Description: Female ICR mice, 6-8 weeks old, were purchased from BEIJING VITAL RIVER LABORATORY ANIMAL TECHNOLOGY CO., LTD., and the experiment was started after 3 days of acclimatization. After intragastric administration of different doses of the compound for 3 consecutive days, the spleen of mice was taken, the spleen cells were collected, and RIPA lysis buffer (Beyotime, Cat. P0013B) was added. The cells were lysed on ice for 15 minutes and centrifuged at 12000 rpm at 4° C. for 10 minutes. The protein sample of the supernatant was collected, the protein was quantified by using the BCA kit (Beyotime, Cat. P0009), and then the protein was diluted to 0.25 mg/mL. The expressions of BTK (CST, Cat. 8547S) and the internal reference (3-actin (CST, Cat. 3700S) were detected using a fully automated western blot quantitative analyzer (Proteinsimple). The expression level of BTK relative to the internal reference was calculated using Compass software, and the DD50 value was calculated using Origen9.2 software according to formula (2). Specifically, the BTKadministration denoted the expression level of BTK in administration groups at different doses, and the BTKvehicle denoted the expression level of BTK in the vehicle control group.
BTK %=BTKadministration/BTKvehicle×100 formula (2)

BTK wt = BTK wt (Homo sapiens (Human), UniProt Q06187); test: In vitro kinase detection, BTK wt; assay type: biochemical
Sequence of BTK wt (Q06187 whole entry): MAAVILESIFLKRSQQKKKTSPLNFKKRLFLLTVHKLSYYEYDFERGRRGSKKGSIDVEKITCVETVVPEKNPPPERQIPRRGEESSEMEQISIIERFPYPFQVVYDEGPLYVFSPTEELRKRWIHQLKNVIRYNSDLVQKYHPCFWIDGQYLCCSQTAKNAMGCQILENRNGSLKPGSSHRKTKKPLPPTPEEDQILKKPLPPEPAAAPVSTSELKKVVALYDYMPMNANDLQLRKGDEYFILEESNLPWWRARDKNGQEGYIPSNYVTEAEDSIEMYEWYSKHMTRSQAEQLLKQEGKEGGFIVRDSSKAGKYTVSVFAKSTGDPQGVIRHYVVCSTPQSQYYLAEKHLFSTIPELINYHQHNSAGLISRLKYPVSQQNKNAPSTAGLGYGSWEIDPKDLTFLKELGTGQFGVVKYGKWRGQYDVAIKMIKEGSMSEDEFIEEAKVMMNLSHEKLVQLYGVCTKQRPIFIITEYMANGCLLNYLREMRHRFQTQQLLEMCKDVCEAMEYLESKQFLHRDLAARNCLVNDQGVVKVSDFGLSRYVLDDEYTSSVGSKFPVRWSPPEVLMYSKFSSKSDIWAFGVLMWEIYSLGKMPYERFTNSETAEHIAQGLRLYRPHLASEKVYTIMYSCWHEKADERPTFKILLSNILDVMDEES
Description: (§1) Kinases BTK wt (Carna, Cat. No. 08-180) and BTK C481S (Cama, Cat. No. 08-547) were prepared into a 2.5× kinase solution, and the substrates FAM-P2 (GL Biochem, Cat. No. 112394) and ATP (Sigma, Cat. No. A7699-1G) were prepared into a 2.5× substrate solution, respectively. 5 μL of compounds at different concentrations were added to a 384-well plate. 10 μl of 2.5× kinase solution was added, and the resulting mixture was incubated at room temperature for 10 min. 10 μL of 2.5× substrate solution was added, and the mixture was incubated at 28° C. for an appropriate period of time. The reaction was stopped by adding 30 μL of stop buffer, and the detection was carried out by using Caliper EZ reader2. The IC50 value was calculated by using XLFit excel add-in version 5.4.0.8 software. The calculation formula of the inhibition rate was shown in formula (3), wherein max denoted the readout of the DMSO control, min denoted the readout of the negative control, and conversion denoted the readout of the compound

BTK C481S = BTK C481S (Homo sapiens (Human), UniProt Q06187, C481S); test: In vitro kinase detection, BTK C481S; assay type: biochemical
Sequence of BTK C481S (Q06187 whole entry C481S): as the sequence (Q06187 whole entry) above, with C481S counted along it
Description: as §1

Sequence of BTK (Homo sapiens (Human), UniProt Q06187) (Q06187 whole entry): as the sequence (Q06187 whole entry) above

SMILES: Nc1ncnc2c1c(-c1ccc(Oc3ccccc3)cc1)nn2C1CCN(C2CN(C3CN(c4ccc5c(c4)C(=O)N(C4CCC(=O)NC4=O)C5=O)C3)C2)CC1 (stereo not shown) [Compound 1, 5-[3-[3-[4-[4-amino-3-(4-phenoxyphenyl]pyrazolo[3,4-d]pyrimidin-1-yl]-1-piperidyl]azetidin-1-yl]azetidin-1-yl]-2-(2,6-dioxo-3-piperidyl)isoindoline-1,3-dione]
- degradation effect on BTK in Mino cells (conclusion) (BTK [1]): significant degradation effect
- DC50 (BTK [1]; 48 hours, western blot): 10.9 nM
- degradation effect on BTK proteins in spleen of mice (conclusion) (BTK [2]): significant degradation effect
- IC50 (BTK wt): 6.3 nM
- inhibitory effect on BTK wt kinase (conclusion) (BTK wt): significant inhibitory effect
- IC50 (BTK C481S): 8 nM
- inhibitory effect on BTK C481S kinase (conclusion) (BTK C481S): significant inhibitory effect
